Measurements taken from patent US11813350B2, “Composition for the treatment of rosacea and/or telangiectasia” (NAOS INSTITUTE OF LIFE SCIENCE, priority 2020, dated 2023).

Tested on: KLK-5
Assay: Inhibition of the synthesis of KLK-5 secreted by normal human keratinocytes in an environment mimicking rosacea (IL-17 + Vit. D induction, ELISA on supernatants, normalized to MTT cell viability)
Format: cell-based
Details: Keratinocyte, NHK, 48 hours, induced with IL-17 10 ng/ml + Vit. D 10-7 mol/L, 1 mM calcium, positive control
Method: NHKs originating from LONZA (France) were used in this study.
The culture conditions are as follows: • Cell type: NHK donor PP12 • Culture medium: KBM+Lonza supplements=KGM • Seeding density: 15,000 cells/well in 96-well plates with 100 μl of medium.
The conditions for induction of the synthesis of KLK-5 are as follows: • Presence of 1 mM of calcium • Inducer mix: (see Table 1) IL-17 at 10 ng/ml+Vit. D at 10-7 mol/L • Processing time: 48 hours • Positive control of induced KLK5 inhibition: Dexamethasone at 1 μM
The quantification of KLK-5 in the supernatants is carried out using an Enzyme Linked Immunosorbent Assay (ELISA) (Ref: DY8459-05, R&D Systems, France) with the reagents recommended by the manufacturer (DuoSet Ancillary Reagent Kit 2, Ref: DY008, R&D Systems, France) and used according to the manufacturer's instructions.
The optical density (OD) is read with a spectrophotometer at 450 nm. The concentration of KLK-5 is calculated from the standard range (15.6 to 1000 pg/ml) established with the recombinant human protein of KLK-5.
A dilution of the supernatants to 1/50th is mandatory so that the samples are not out of range. […]
MTT is a soluble yellow dye which is metabolized by mitochondrial enzymes (succinate dehydrogenase) into a dark blue compound: formazan. The formazan crystals are then dissolved in DMSO then the optical density is measured spectrophotometrically at 540 nm. […]

Structure (SMILES): C[C@@H]1C[C@H]2[C@@H]3CCC4=CC(=O)C=C[C@]4(C)[C@@]3(F)[C@@H](O)C[C@]2(C)[C@@]1(O)C(=O)CO [dexamethasone]
- inhibition at 1 µM: 16.6%
